Results from patent US11465980B2, “6-membered aza-heterocyclic containing delta-opioid receptor modulating compounds, methods of using and making the same” (Trevena, Inc., priority 2015, dated 2022).

What was measured:
adult male C57 mice = experiment: Tail suspension test (TST); assay type: in vivo, mouse; settings: Mus musculus; route sc, po; p < 0.05 compared to vehicle-treated mice; read-out: Active TST Dose
Description: The experiments were performed using adult male C57 mice (6-10 weeks of age, 20-30 g, Hilltop Lab, PA). The mice were housed in standard rodent cages with stainless steel mesh wire bar lids in groups of 4 with controlled temperature and light cycle (6:00 a.m.-6:00 p.m.). Animals were given free access to food (Harlan Teklad Global 18% protein (Madison, Wis.)) and water during a minimum 2-day habituation period to the laboratory. Animals that were used in the study were handled, housed, and sacrificed (using compressed CO2) in accord with the current NIH guidelines regarding the use and care of laboratory animals, and all applicable local, state, and federal regulations and guidelines. Animals are identified by cage number, and by markings applied to the proximal tip of the tail using a permanent marker. Group sizes (n=8, and therefore 30-50 animals per study) provide reliable estimates of treatment effects, and this species and strain of mouse has been recognized as appropriate for pharmacology studies.
To measure efficacy of the compounds the compounds were tested using a tail suspension test. The tail suspension test is a behavioral test used to evaluate the efficacy of antidepressant drugs in rodents. In the TST, mice (n=8/group) were suspended by the tail with tape approximately 30-50 cm above the lab bench. Mice are positioned such that the base of their tail is perpendicular to the lab bench. Each mouse is given 1 trial that last 6 minutes. The total duration of immobility is calculated as the percentage of time that the mouse is immobile. The duration of immobility is the main parameter measured. This is calculated from the cumulated time during which the animals is absent of initiated movements including passive swaying. When antidepressant drugs are administered, immobility is decreased by a variety of classes of antidepressant drugs. One or more of the compounds show antidepressant activity.

mouse [1] = experiment: Tactile allodynia produced by intraplantar Freund's Complete Adjuvant, von Frey (mouse); assay type: in vivo; settings: route po, p < 0.05 vs vehicle
Description: (§1) Animals were acclimated to the vivarium for at least 48 hr prior to behavioral testing. Inflammation was induced for both rodent species with the administration of an intraplantar (subcutaneous injection into the plantar surface of the hind paw, i.pl.) injection of 0.10 ml Freund's Complete Adjuvant (FCA).
For mouse studies, the experiments were conducted 48 hours after FCA administration. Tactile allodynia was measured using a series of von Frey monofilaments. These filaments are bendable, plastic and intended to poke, not penetrate, the skin. Animals were placed in a Plexiglas chamber (approximately 10 cm×20 cm×25 cm) and allowed to habituate for 5-10 minutes. The chamber was positioned on top of a mesh screen so that von Frey monofilaments can be presented to the plantar surface of the hind paw that is inflamed. The measurement of tactile sensitivity for the injected hind paw is obtained using the up/down method (LaBuda and Little, 2005, J Neurosci. Methods, 144, 175) with […]. Each trial will start with a von Frey force of 0.6 grams delivered to the hind paw for approximately 1-2 seconds. If there was no withdrawal response, the next higher force was be delivered. If there was a response, the next lower force was delivered. This procedure was performed until no response was made at the highest force (2 grams) or until four stimuli are administered following the initial response. The 50% paw withdrawal threshold for the hind paw was be calculated using the following formula: [Xth]log=[vFi]log+ky where [vFr] is the force of the last von Frey used, k is the average interval (in log units) between the von Frey monofilaments, and y is a value that depends upon the pattern of withdrawal responses (Dixon, Annual Review Pharmacol Toxicol, 1980, 20, 441).

rat [2] = experiment: Mechanical allodynia after Freund's Complete Adjuvant, Randall-Selitto (rat); assay type: in vivo; settings: route sc, p < 0.05 vs vehicle
Description: as §1
For rat studies, the experiments were conducted 24 hours after CFA administration. Rats are tested for mechanical allodynia in a Randall-Selitto apparatus. The inflamed paw is put on a pedestal and a pointed force of increasing intensity (0 to 250 grams) is applied to the paw. When the animal struggles to withdraw from the force the test is stopped and the force to induce that struggle is recorded. Data may be presented as mean grams of force to withdrawal or a percentage of the maximum possible effect.

rat [3] = experiment: Tactile allodynia produced by nitroglycerin (migraine model, rat); assay type: in vivo; settings: route sc, nitroglycerin 10 mg/kg ip, p < 0.05 vs vehicle
mouse [4] = experiment: Tactile allodynia produced by nitroglycerin (migraine model, mouse); assay type: in vivo; settings: route sc, nitroglycerin 10 mg/kg ip, p < 0.05 vs vehicle, read-out: Active Migraine Doses
Description: Compounds were tested for efficacy in rodent models of nitroglycerine induced migraine. In this model both rats and mice can be induced to have a behavioral response consistent with the progression of a migraine attack by the intraperitoneal injection of nitroglycerin. In this test mice or rats (n=8/group) are given an intraperitoneal injection of nitroglycerin at 10 mg/kg. After 90 minutes the animals are subcutaneously dosed with test compound. A measurement of mechanical allodynia will be obtained using the up/down method with seven von Frey monofilaments. There is a specific series used for rat and mouse. Each monofilament is delivered to the hind paw for approximately 1-2 seconds. If there is a response, the next lower force will be delivered. This procedure will be performed until no response was made at the highest force or until four stimuli are administered following the initial response. The 50% paw withdrawal threshold for the hind paw will be calculated using the following formula: [Xth]log=[vFr]log+ky where [vFr] is the force of the last von Frey used, k is the average interval (in log units) between the von Frey monofilaments, and y is a value that depends upon the pattern of withdrawal responses. Testing for tactile sensitivity will be performed and a withdrawal value will be assigned as the tactile sensitivity (expressed in grams of force required to elicit a response) for the injected paw for each animal. Data is presented as the mean grams required to produce a hind paw withdrawal from the von Frey stimulus. […] Compounds found to be effective in this model of migraine at the doses indicated, although other doses may also be active. Other compounds described herein were not necessarily tested, but are expected to be able have some level of efficacy.

rat [5] = experiment: Hemilesioned rat 6-OHDA model (bar, drag, rotarod tests); assay type: in vivo; settings: route sc, p < 0.05 vs vehicle
Description: Compounds were tested for efficacy in reversing akinesia and bradykinesia in two well accepted rodent Parkinson's disease (PD) models; the haloperidol-induced rat catalepsy and 6-OHDA rat hemiparkinson lesion models.
In the hemilesioned rat 6-OHDA model, the effect of compound on the akinetic response to lesioning of the contralateral forepaw in the bar test and stepping activity as measured by the drag test were determined. […] This assay examines efficacy for reversing PD motor symptoms (i.e. akinesia/bradykinesia and gait abilities). The behavioral readouts will include immobility time in the bar test (akinesia), number of steps in the drag test (akinesia/bradykinesia) and time spent on rod in the rotarod test (overall gait ability, gross motor behavior). Compounds were administered subcutaneously and efficacy was evaluated between 30 and 90 min post dose.

## COc1ccc([C@@H]2CCN(CCc3ccccc3)[C@H](C)[C@H]2COc2ccc3c(c2)C(=O)NC3)cc1 [Compound B0707, (−)-6-{[(trans, trans)-4-(4-methoxyphenyl)-2-methyl-1-(2-phenylethy)piperidin-3-yl]methoxy}-2,3-dihydro-1H-isoindol-1-one]
Adult male C57 mice
  minimal effective dose: ≤ 30 mg/kg
Mouse [1]
  Active CFA Dose: ≤30 mg/kg
Rat [2]
  Active CFA Dose: ≤10 mg/kg
Rat [3]
  Active Migraine Doses: ≤10 mg/kg
Mouse [4]
  minimal effective dose: ≤ 10 mg/kg
Rat [5]
  Active Dose (hemilesioned rat 6-OHDA model): ≤30 mg/kg
